Common to all, as to format: biochemical
For assay [1], the target named is T1, HIV-1 RT (Human immunodeficiency virus type 1 group M subtype B, UniProt P03366).
T1 construct: 4 µl of recombinant HIV-1 RT
As to the kind of experiment: HIV-1 reverse transcriptase assay. Conditions: dATP (3.2 µM) as competing substrate, poly rU.dA primer/template. The protocol: […] In the HSV DNA polymerase assays, the inhibitory effect of adefovir-pp or PMEA-DAPym-pp on herpesvirus DNA polymerase-catalyzed polymerization was also determined in the presence of radiolabeled [^3H]dGTP (1 mCi/ml; 2.8 µM), [^3H]dTTP (1 mCi/ml; 1 µM), or [^3H]dCTP (1 mCi/ml; 2.5 µM) as competing dNTP in the presence of 0.8 µl (5 mM) of the other dNTPs in the reaction mixture as described above. The reaction was started by the addition of 4 µl of recombinant HSV-1 DNA polymerase (kindly provided by M.W. Wathen, at that time at Pfizer, Kalamazoo, MI) or 4 µl of recombinant HIV-1 RT (in 20 mM Tris.HCl, pH 8.0; 1 mM DTT; 0.1 mM EDTA; 0.2 M NaCl; 40% glycerol), and the reaction mixture was incubated for 60 min (HSV-1 DNA polymerase) or 30 min (HIV-1 RT) at 37°C. Then, 1 ml of ice-cold 5% TCA in 0.02 M Na4P2O7.10 H2O was added to terminate the polymerisation reaction, after which the acid-insoluble precipitate (radiolabeled DNA) was captured onto Whatman glass fiber filters (type GF/C; GE Healthcare UK Limited, Buckinghamshire, UK) and further washed with 5% TCA and ethanol to remove free radiolabeled dNTP. Radioactivity was determined in a Perkin Elmer Tri-Carb 2810 TR liquid scintillation counter.

In assay [2] the target is T2, HSV DNA polymerase (Human herpesvirus 1, UniProt P04293).
T2 construct: gift of M.W. Wathen (Pfizer, Kalamazoo, MI)
As to the kind of experiment: HSV DNA polymerase assay. Conditions: for IC50: gapped calf thymus DNA. The protocol:
The reaction mixture (40 µl) for the HSV-1 DNA polymerase and HIV-1 RT assays contained 4 µl of Premix (200 mM Tris.HCl, pH 7.5; 2 mM DTT; 30 mM MgCl2), 4 µl of BSA (5 mg/ml), 1.6 µl of activated calf thymus DNA (1.25 mg/ml), 0.8 µl of dCTP (5 mM), 0.8 µl of dTTP (5 mM), 0.8 µl of dGTP (5 mM), 2 µl of radiolabeled [^3H]dATP (1 mCi/ml) (3.2 µM), 18 µl of H2O, and 4 µl of adefovir-pp or PMEO-DAPym-pp at different concentrations (i.e., 200, 20, 2, and 0.2 µM). In the HSV DNA polymerase assays, the inhibitory effect of adefovir-pp or PMEA-DAPym-pp on herpesvirus DNA polymerase-catalyzed polymerization was also determined in the presence of radiolabeled [^3H]dGTP (1 mCi/ml; 2.8 µM), [^3H]dTTP (1 mCi/ml; 1 µM), or [^3H]dCTP (1 mCi/ml; 2.5 µM) as competing dNTP in the presence of 0.8 µl (5 mM) of the other dNTPs in the reaction mixture as described above. The reaction was started by the addition of 4 µl of recombinant HSV-1 DNA polymerase (kindly provided by M.W. Wathen, at that time at Pfizer, Kalamazoo, MI) or 4 µl of recombinant HIV-1 RT (in 20 mM Tris.HCl, pH 8.0; 1 mM DTT; 0.1 mM EDTA; 0.2 M NaCl; 40% glycerol), and the reaction mixture was incubated for 60 min (HSV-1 DNA polymerase) or 30 min (HIV-1 RT) at 37°C. Then, 1 ml of ice-cold 5% TCA in 0.02 M Na4P2O7.10 H2O was added to terminate the polymerisation reaction, after which the acid-insoluble precipitate (radiolabeled DNA) was captured onto Whatman glass fiber filters (type GF/C; GE Healthcare UK Limited, Buckinghamshire, UK) and further washed with 5% TCA and ethanol to remove free radiolabeled dNTP. Radioactivity was determined in a Perkin Elmer Tri-Carb 2810 TR liquid scintillation counter.

Assay [3] deals with mutant HIV-1 RT enzymes (K65R and K70R). As to the kind of experiment: Mutant HIV-1 RT enzyme inhibition. The conditions noted are these: K65R and K70R mutant HIV-1 RT, data not shown. The protocol:
In all assay systems the drugs were administered prior to, or at the time of, virus infection which is relevant from a microbicidal application viewpoint, for which the drugs are preferentially already present at the time of infection. However, it might well be possible that these drugs are also effective when exposed shortly after virus infection given the DNA polymerase/HIV reverse transcriptase as being one of the intracellular targets of PMEO-DAPym. […] Thus, PMEO-DAPym may have a rather high genetic barrier suppressing a wide variety of clinical HSV and HIV-1 clade isolates, including clinically relevant mutant viruses.

Converted amounts (≈) assume the structure as drawn.

T2 sequence (P04293 whole entry): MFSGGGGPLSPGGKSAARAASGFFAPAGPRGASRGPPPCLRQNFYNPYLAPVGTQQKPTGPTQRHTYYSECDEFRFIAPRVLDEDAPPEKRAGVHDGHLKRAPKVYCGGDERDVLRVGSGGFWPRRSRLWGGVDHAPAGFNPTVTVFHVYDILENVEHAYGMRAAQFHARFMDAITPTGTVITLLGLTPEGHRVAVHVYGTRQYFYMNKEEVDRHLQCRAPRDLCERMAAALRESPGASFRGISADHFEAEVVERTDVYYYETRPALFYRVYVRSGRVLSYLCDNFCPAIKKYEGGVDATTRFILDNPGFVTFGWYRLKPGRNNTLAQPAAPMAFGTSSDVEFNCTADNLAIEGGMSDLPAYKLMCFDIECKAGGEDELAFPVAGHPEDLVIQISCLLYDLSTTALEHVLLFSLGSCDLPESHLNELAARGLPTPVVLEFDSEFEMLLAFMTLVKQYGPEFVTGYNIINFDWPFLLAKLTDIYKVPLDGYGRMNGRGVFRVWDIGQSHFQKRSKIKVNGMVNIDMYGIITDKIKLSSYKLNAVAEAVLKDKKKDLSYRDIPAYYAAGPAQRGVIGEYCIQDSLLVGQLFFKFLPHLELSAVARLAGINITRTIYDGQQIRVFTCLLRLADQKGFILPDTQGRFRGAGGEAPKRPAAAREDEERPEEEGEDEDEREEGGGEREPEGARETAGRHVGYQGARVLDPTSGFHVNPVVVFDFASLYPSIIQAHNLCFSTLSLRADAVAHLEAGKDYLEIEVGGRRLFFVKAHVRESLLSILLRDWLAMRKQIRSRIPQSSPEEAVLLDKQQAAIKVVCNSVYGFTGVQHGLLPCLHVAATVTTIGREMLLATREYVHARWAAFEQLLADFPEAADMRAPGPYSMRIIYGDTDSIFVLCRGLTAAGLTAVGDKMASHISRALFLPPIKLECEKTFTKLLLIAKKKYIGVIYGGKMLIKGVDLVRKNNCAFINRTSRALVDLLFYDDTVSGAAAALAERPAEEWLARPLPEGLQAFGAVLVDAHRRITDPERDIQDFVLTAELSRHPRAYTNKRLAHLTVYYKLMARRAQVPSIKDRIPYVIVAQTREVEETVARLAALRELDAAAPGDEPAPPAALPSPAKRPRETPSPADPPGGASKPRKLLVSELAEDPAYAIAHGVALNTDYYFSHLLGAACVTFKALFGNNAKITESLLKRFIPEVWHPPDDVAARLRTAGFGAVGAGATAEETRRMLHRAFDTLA

For `Nc1cc(OCCOCP(=O)(O)OP(=O)(O)OP(=O)(O)O)nc(N)n1` [PMEO-DAPym-pp], the IC50 in assay [1] turned out to be 0.19 ± 0.21 µg/mL (≈ 0.448 µM); in assay [1] (listed as PMEO-DAPym-diphosphate), 0.43 µg/mL (≈ 1.01 µM); in assay [2] ([3H]dATP as competing substrate), 0.52 ± 0.03 µg/mL (≈ 1.23 µM); in assay [2] ([3H]dCTP as competing substrate) it was 5.2 ± 4.8 µg/mL (≈ 12.3 µM); in assay [2] ([3H]dGTP as competing substrate), 3.1 ± 1.0 µg/mL (≈ 7.31 µM); in assay [2] ([3H]dTTP as competing substrate), 5.2 ± 0.3 µg/mL (≈ 12.3 µM). Also, the IC50 entry in assay [3] is “submicromolar range”. The “IC50, incorporation of other [3H]dNTPs” value in assay [2] (dCTP, dGTP, dTTP, range) was 3.1 to 5.2 µg/mL.

For orientation: IC50 means the concentration at which inhibition is half-maximal.

Source of the values: article PMC3723632, “A Multi-targeted Drug Candidate with Dual Anti-HIV and Anti-HSV Activity” (PLoS Pathogens, 2013).
